In brackets after ≈: the same amount, converted by molar mass. Where two headings read alike, the source gives them in different places.
Columns and labels:
Assay in all cases: MIC against standard strains (agar dilution)
Type in all cases: cell-based
[1] = system: Acinetobacter calcoaceticu 15473
Experimental: (§1) Test example 1: Measurement of Minimum Inhibitory Concentration (MIC)
(§2) Specifically, test compounds were diluted by 2-fold dilution method and dispersed in Mueller-Hinton agar medium and then, 2µℓ of test strains were inoculated at a concentration of 10^7 cfu(colony forming unit)/mℓ on the medium and incubated for 20 hours at 37°C.

[2] = system: Citrobacter diversus 2046E; conditions: Citrobacter koseri
Experimental: as §1, §2

[3] = system: Citrobacter freundii 8090
Experimental: as §1, §2

[4] = system: Enterobacter cloacae IND+VE 1194E
Experimental: as §1, §2

Enterobacter cloacae P99 = system: Enterobacter cloacae P99
Experimental: as §1, §2

[5] = system: Enterococcus faecalis 29212
Experimental: as §1, §2

Escherichia coli 10536 = system: Escherichia coli 10536
Experimental: as §1, §2

Escherichia coli 3190Y = conditions: Escherichia coli, 3190Y, 20 h
Experimental: as §1, §2

Escherichia coli 851E = conditions: Escherichia coli, 851E, 20 h
Experimental: as §1, §2

[6] = system: Escherichia coli TEM1 1193E; conditions: TEM11193E, 20 h
Experimental: as §1, §2

[7] = system: Escherichia coli TEM3 3455E; conditions: TEM33455E, 20 h
Experimental: as §1, §2

[8] = system: Escherichia coli TEM9 2639E; conditions: TEM92639E
Experimental: as §1, §2

[9] = system: Klebsiella aerogenes K1+ 1082E
Experimental: as §1, §2

[10] = system: Klebsiella aerogenes SHV-1 1976E; conditions: Klebsiella aerogenes, 20 h
Experimental: as §1, §2

[11] = system: Klebsiella pneumoniae 2011E
Experimental: as §1, §2

[12] = system: Moraxella catarrhalis 25240
Experimental: as §1, §2

[13] = system: Moraxella catarrhalis C2431
Experimental: as §1, §2

[14] = system: Morganella morganii 1375E
Experimental: as §1, §2

Proteus vulgaris 6059 = system: Proteus vulgaris 6059
Experimental: as §1, §2

[15] = system: Pseudomonas aeruginosa 1912E
Experimental: as §1, §2

[16] = system: Pseudomonas aeruginosa 6065Y
Experimental: as §1, §2

[17] = system: Salmonella typhimurium 14028; conditions: Salmonella enterica
Experimental: as §1, §2

[18] = system: Serratia marcescens 1826E
Experimental: as §1, §2

[19] = system: Staphylococcus aureus 241
Experimental: as §1, §2

[20] = system: Staphylococcus aureus 6538p
Experimental: as §1, §2

Staphylococcus aureus 77 = system: Staphylococcus aureus 77
Experimental: as §1, §2

[21] = system: Staphylococcus aureus giorgio
Experimental: as §1, §2

[22] = system: Staphylococcus epidermidi 887E
Experimental: as §1, §2

[23] = Citrobacter freundii, 8090, 20 h
[24] = Enterobacter cloacae, P99, 20 h
[25] = Enterococcus faecalis, 29212, 20 h
[26] = Klebsiella pneumoniae, 2011E, 20 h
[27] = Moraxella catarrhalis, 25240, 20 h
[28] = Moraxella catarrhalis, C2431, 20 h
[29] = Morganella morganii, 1375E, 20 h
[30] = Pseudomonas aeruginosa, 1912E, 20 h
[31] = Pseudomonas aeruginosa, 6065Y, 20 h
[32] = Serratia marcescens, 1826E, 20 h
[33] = Staphylococcus aureus, 241, 20 h
[34] = Staphylococcus aureus, 6538P, 20 h
[35] = Staphylococcus aureus, 77, 20 h

SMILES: CCO/N=C(\C(=O)NC1C(=O)N2C(C(=O)O)=C(Sc3cc(N)nc(N)n3)CSC12)c1csc(N)n1 (stereo not drawn) [compound 27, 7-[(Z)-2-(2-amino-thiazol-4-yl)-2-ethoxyiminoacetylamino]-3-(2,6-diamino-pyrimidin-4-ylsulfanyl)-8-oxo-5-thia-1-aza-bi cyclo[4,2,0]oct-2-ene-2-carboxylic acid]
- MIC ([1]; Acinetobacter calcoaceticu 15473, Mueller-Hinton agar, 20 hours at 37°C, read-out: MIC): 32 µg/mL (≈ 59.5 µM)
- MIC ([2]; Citrobacter diversus 2046E, Mueller-Hinton agar, 20 hours at 37°C, read-out: MIC): 64 µg/mL (≈ 119 µM)
- MIC ([3]; Citrobacter freundii 8090, Mueller-Hinton agar, 20 hours at 37°C, read-out: MIC): 2 µg/mL (≈ 3.72 µM)
- MIC ([4]; Enterobacter cloacae IND+VE 1194E, Mueller-Hinton agar, 20 hours at 37°C, read-out: MIC): > 64 µg/mL
- MIC (Enterobacter cloacae P99; Enterobacter cloacae P99, Mueller-Hinton agar, 20 hours at 37°C, read-out: MIC): > 64 µg/mL
- MIC ([5]; Enterococcus faecalis 29212, Mueller-Hinton agar, 20 hours at 37°C, read-out: MIC): 64 µg/mL (≈ 119 µM)
- MIC (Escherichia coli 10536; Escherichia coli 10536, Mueller-Hinton agar, 20 hours at 37°C, read-out: MIC): 0.25 µg/mL (≈ 0.465 µM)
- MIC (Escherichia coli 3190Y): 0.13 µg/mL (≈ 0.242 µM)
- MIC (Escherichia coli 851E): 0.25 µg/mL (≈ 0.465 µM)
- MIC [6]: 0.5 µg/mL (≈ 0.93 µM)
- MIC [7]: 16 µg/mL (≈ 29.8 µM)
- MIC ([8]; Escherichia coli TEM9 2639E, Mueller-Hinton agar, 20 hours at 37°C, read-out: MIC): 64 µg/mL (≈ 119 µM)
- MIC ([9]; Klebsiella aerogenes K1+ 1082E, Mueller-Hinton agar, 20 hours at 37°C, read-out: MIC): > 64 µg/mL
- MIC [10]: 0.5 µg/mL (≈ 0.93 µM)
- MIC ([11]; Klebsiella pneumoniae 2011E, Mueller-Hinton agar, 20 hours at 37°C, read-out: MIC): 2 µg/mL (≈ 3.72 µM)
- MIC ([12]; Moraxella catarrhalis 25240, Mueller-Hinton agar, 20 hours at 37°C, read-out: MIC): ≤ 0.008 µg/mL
- MIC ([13]; Moraxella catarrhalis C2431, Mueller-Hinton agar, 20 hours at 37°C, read-out: MIC): ≤ 0.008 µg/mL
- MIC ([14]; Morganella morganii 1375E, Mueller-Hinton agar, 20 hours at 37°C, read-out: MIC): 0.25 µg/mL (≈ 0.465 µM)
- MIC (Proteus vulgaris 6059; Proteus vulgaris 6059, Mueller-Hinton agar, 20 hours at 37°C, read-out: MIC): 0.063 µg/mL (≈ 0.117 µM)
- MIC ([15]; Pseudomonas aeruginosa 1912E, Mueller-Hinton agar, 20 hours at 37°C, read-out: MIC): 8 µg/mL (≈ 14.9 µM)
- MIC ([16]; Pseudomonas aeruginosa 6065Y, Mueller-Hinton agar, 20 hours at 37°C, read-out: MIC): 64 µg/mL (≈ 119 µM)
- MIC ([17]; Salmonella typhimurium 14028, Mueller-Hinton agar, 20 hours at 37°C, read-out: MIC): 1 µg/mL (≈ 1.86 µM)
- MIC ([18]; Serratia marcescens 1826E, Mueller-Hinton agar, 20 hours at 37°C, read-out: MIC): 4 µg/mL (≈ 7.44 µM)
- MIC ([19]; Staphylococcus aureus 241, Mueller-Hinton agar, 20 hours at 37°C, read-out: MIC): 8 µg/mL (≈ 14.9 µM)
- MIC ([20]; Staphylococcus aureus 6538p, Mueller-Hinton agar, 20 hours at 37°C, read-out: MIC): 2 µg/mL (≈ 3.72 µM)
- MIC (Staphylococcus aureus 77; Staphylococcus aureus 77, Mueller-Hinton agar, 20 hours at 37°C, read-out: MIC): 4 µg/mL (≈ 7.44 µM)
- MIC ([21]; Staphylococcus aureus giorgio, Mueller-Hinton agar, 20 hours at 37°C, read-out: MIC): 0.5 µg/mL (≈ 0.93 µM)
- MIC ([22]; Staphylococcus epidermidi 887E, Mueller-Hinton agar, 20 hours at 37°C, read-out: MIC): 8 µg/mL (≈ 14.9 µM)

SMILES: C#CCO/N=C(\C(=O)NC1C(=O)N2C(C(=O)O)=C(Sc3cc(N)nc(N)n3)CSC12)c1csc(N)n1 (stereo not drawn) [compound 28, 7-[(Z)-2-(2-amino-thiazol-4-yl)-2-propyn-2-yioxyimino-acetylamino]-3-(2,6-diamino-pyrimidin-4-ylsulfanyl)-8-oxo-5-thia1-aza-bicyclo[4,2,0]oct-2-ene-2-carboxylic acid]
- MIC ([1]; Acinetobacter, 15473, 20 h): 32 µg/mL (≈ 58.4 µM)
- MIC ([2]; 2046E, 20 h): > 64 µg/mL
- MIC [3, 23]: 2 µg/mL (≈ 3.65 µM)
- MIC ([4]; Enterobacter cloacae, 20 h): > 64 µg/mL
- MIC (Enterobacter cloacae P99; [24]): > 64 µg/mL
- MIC [5, 25]: 32 µg/mL (≈ 58.4 µM)
- MIC (Escherichia coli 10536; Escherichia coli, 10536, 20 h): 0.25 µg/mL (≈ 0.457 µM)
- MIC (Escherichia coli 3190Y): 0.13 µg/mL (≈ 0.237 µM)
- MIC (Escherichia coli 851E): 0.25 µg/mL (≈ 0.457 µM)
- MIC [6]: 0.5 µg/mL (≈ 0.913 µM)
- MIC [7]: 16 µg/mL (≈ 29.2 µM)
- MIC ([8]; Escherichia coli, 20 h): 64 µg/mL (≈ 117 µM)
- MIC ([9]; Klebsiella aerogenes, 20 h): > 64 µg/mL
- MIC [10]: 0.5 µg/mL (≈ 0.913 µM)
- MIC [11, 26]: 2 µg/mL (≈ 3.65 µM)
- MIC [12, 27]: 0.016 µg/mL (≈ 0.0292 µM)
- MIC [13, 28]: 0.016 µg/mL (≈ 0.0292 µM)
- MIC [14, 29]: 0.25 µg/mL (≈ 0.457 µM)
- MIC (Proteus vulgaris 6059; Proteus vulgaris, 6059, 20 h): 0.031 µg/mL (≈ 0.0566 µM)
- MIC [15, 30]: 32 µg/mL (≈ 58.4 µM)
- MIC [16, 31]: 64 µg/mL (≈ 117 µM)
- MIC ([17]; TYPHIMURIUM, 20 h): 1 µg/mL (≈ 1.83 µM)
- MIC [18, 32]: 8 µg/mL (≈ 14.6 µM)
- MIC [19, 33]: 8 µg/mL (≈ 14.6 µM)
- MIC [20, 34]: 1 µg/mL (≈ 1.83 µM)
- MIC (Staphylococcus aureus 77; [35]): 4 µg/mL (≈ 7.3 µM)
- MIC ([21]; Staphylococcus aureus, 20 h): 0.5 µg/mL (≈ 0.913 µM)
- MIC ([22]; Staphylococcus, 887E, 20 h): 8 µg/mL (≈ 14.6 µM)

SMILES: CCO/N=C(\C(=O)NC1C(=O)N2C(C(=O)O)=C(Sc3cc(N)nc(N)n3)CSC12)c1nsc(N)n1 (stereo not drawn) [compound 29]
- MIC ([1]; Acinetobacter, 15473, 20 h): 32 µg/mL (≈ 59.4 µM)
- MIC ([2]; 2046E, 20 h): > 64 µg/mL
- MIC [3, 23]: 2 µg/mL (≈ 3.71 µM)
- MIC ([4]; Enterobacter cloacae, 20 h): > 64 µg/mL
- MIC (Enterobacter cloacae P99; [24]): > 64 µg/mL
- MIC [5, 25]: 64 µg/mL (≈ 119 µM)
- MIC (Escherichia coli 10536; Escherichia coli, 10536, 20 h): 0.13 µg/mL (≈ 0.241 µM)
- MIC (Escherichia coli 3190Y): 0.063 µg/mL (≈ 0.117 µM)
- MIC (Escherichia coli 851E): 0.25 µg/mL (≈ 0.464 µM)
- MIC [6]: 1 µg/mL (≈ 1.86 µM)
- MIC [7]: 32 µg/mL (≈ 59.4 µM)
- MIC ([8]; Escherichia coli, 20 h): 64 µg/mL (≈ 119 µM)
- MIC ([9]; Klebsiella aerogenes, 20 h): > 64 µg/mL
- MIC [10]: 1 µg/mL (≈ 1.86 µM)
- MIC [11, 26]: 2 µg/mL (≈ 3.71 µM)
- MIC [12, 27]: ≤ 0.008 µg/mL
- MIC [13, 28]: ≤ 0.008 µg/mL
- MIC [14, 29]: 0.25 µg/mL (≈ 0.464 µM)
- MIC (Proteus vulgaris 6059; Proteus vulgaris, 6059, 20 h): 0.063 µg/mL (≈ 0.117 µM)
- MIC [15, 30]: 8 µg/mL (≈ 14.9 µM)
- MIC [16, 31]: > 64 µg/mL
- MIC ([17]; TYPHIMURIUM, 20 h): 1 µg/mL (≈ 1.86 µM)
- MIC [18, 32]: 4 µg/mL (≈ 7.43 µM)
- MIC [19, 33]: 8 µg/mL (≈ 14.9 µM)
- MIC [20, 34]: 2 µg/mL (≈ 3.71 µM)
- MIC (Staphylococcus aureus 77; [35]): 4 µg/mL (≈ 7.43 µM)
- MIC ([21]; Staphylococcus aureus, 20 h): 1 µg/mL (≈ 1.86 µM)
- MIC ([22]; Staphylococcus, 887E, 20 h): 8 µg/mL (≈ 14.9 µM)

— patent EP1077981B1, “NOVEL CEPHALOSPORIN COMPOUNDS, PROCESSES FOR PREPARATION THEREOF AND ANTIMICROBIAL COMPOSITIONS CONTAINING THE SAME” (LG CHEMICAL LIMITED, priority 1998, dated 1999)
